Laboratory results reported in patent publication US7067500B2, “Betaines as adjuvants to susceptibility testing and antimicrobial therapy” (priority 1997, dated 2006).

Assays:
gram negative bacteria = experiment: Antibiotic sensitivities of BACTEC 12B/PANTA contaminants (MicroScan panels); assay type: cell-based; settings: ceftazidime at 8 μg/ml; contaminants of CB-18 processed specimens on 12B/PANTA
Source text: Preliminary studies designed to assess the nature of contaminants breaking through the BACTEC 12B liquid media supplemented with PANTA used discarded respiratory specimens (n=277) from Quest Diagnostics—Baltimore. (NOTE: the BACTEC 12B liquid culture system is one of the standard methods in the art for culturing mycobacteria, and PANTA is an antimicobial supplement containing polymyxin B, azlocillin, nalidixic acid, trimethoprim, and amphotericin B: this culture system is referred to herein as “12B/PANTA” (Becton Dickinson, Cockeysville, Md.)) Specimens were collected and processed with CB-18 according to the procedure above. Approximately 400–500 μl of each sediment was planted on 12B/PANTA. All contaminants were identified by morphology and/or gram stain and then differentiated as either oxidase/catalase, positive or negative. Contaminants were then speciated, and antibiotic sensitivities determined, using MicroScan® panels (Dade, West Sacramento, Calif.).

[1] = system: M. tuberculosis isolates ATCC 27294, 571/573-BAL, 061-TBR, 52–96-BOL, and 57–96-BOL; experiment: Antibiotic screen with additional antibiotics in the presence and absence of CB-18; assay type: cell-based, Mycobacterium tuberculosis; settings: ceftazidime alone (absence of PANTA) at 16 μg/ml final
Protocol: The experimental design of FIG. 16 was also used to examine the breadth of the CB-18 effect with respect to other, non-β-lactam antibiotics. In these experiments antibiotics (Sigma, St. Louis, Mo.) were manufactured as stock solutions in water or buffer and then diluted with reconstitution fluid and added to the culture bottles prior to inoculation. Nystatin (100 μg/ml final), polymixin B (300 units final), erthromycin (4 μg/ml final), oleandomycin (2 μg/ml final), penicillin G (8 μg/ml final), nalidixic acid (30 μg/ml final), lincomycin (2 μg/ml final), ceftriaxone (32 μg/ml final), and ceftazidime (16 μg/ml final) (ceftazidime was manufactured in 10% sodium bicarbonate) were tested on ATCC 27294, 571/573-BAL, 061-TBR, 52–96-BOL, and 57–96-BOL. All experiments used R.F. and P-caz as controls, and all bottles wherein CB-18 was added used a final concentration of 17 μg/ml. FIG. 28 presents the results of the 571/573-BAL isolate with erythromycin and ceftriaxone. FIG. 29 presents the results of the 061-TBR isolate with polymyxin B, oleandomycin, lincomycin, naldixic acid, penicillin G, and ceftriaxone. FIG. 30 presents the results of the 57–96-BOL isolate with naldixic acid, penicillin G, ceftazidime and ceftriaxone.

Question: How did the “gram negative bacteria sensitive to ceftazidime” value (gram negative bacteria) turn out when `CC(C)(O/N=C(\C(=O)N[C@@H]1C(=O)N2C(C(=O)[O-])=C(C[n+]3ccccc3)CS[C@H]12)c1csc(N)n1)C(=O)O` [ceftazidime] was run?
Answer: 40 of the 48

Question: What about the “effect on isolates relative to other antibiotics tested” value [1] of the same compound?
Answer: one of the least innocuous compounds
